Consider seven compounds from patent US20230389546A1, “ANTIMICROBIAL COMPOSITION” (The Procter & Gamble Company, priority 2022, published 2023).

Test [1] concerns Gram Positive bacteria. Put plainly: Surface Antimicrobial Kill Testing, normalized to triclosan internal standard, gram positive. Type of test: cell-based, S. aureus (Sa). To be noted: for antimicrobial benefit in words, gram-positive: Table 2B formulas. As for the experimental part:
(§1) Inoculum is prepared by streaking microorganism onto a Tryptic Soy Agar (TSA) plate and incubating for 24 h at 33° C. Plated bacteria is resuspended in saline until the transmittance percentage falls within the accepted range for ˜10^8 cfu/mL. For K. pneumonia (Kp) and P. aeruginosa (Pa), this is 31.00-33.00% T. For S. aureus (Sa) this is 23.00-25.00% T. A 10× concentration is made by spinning down the prepared inoculum, removing the supernatant saline from the bacterial pellet, then resuspending the pellet in 1/10th of the original volume of saline. The final inoculum is prepared with 5% of “soil” in the form of Fetal Bovine Serum (FBS). A 18×18 mm sterile glass coverslip is placed into an appropriate container (e.g., petri dish). 20 μL of prepared inoculum is added to the glass coverslip. Inoculum is then air-dried for 30 minutes in a 36° C. incubator. After drying, 40 μL of test sample is added on top of the dried inoculum. This is incubated at room temperature for the desired contact time. 5 mL of neutralizing media (Modified Letheen Broth+Tween+Lecithin (MLBTL)) is added to the coverslip and shaken on an orbital shaker for 5 minutes to ensure proper neutralization and extraction. Viability is then assessed of the neutralized and extracted sample by traditional/alternative microbiological techniques. The normalized antimicrobial activity reported in the performance examples below was generated from detection time data obtained as described in the Surface Antimicrobial Kill Test Method. To account for day-to-day variability an internal standard was tested with each series. The internal standard was a composition of 0.25 wt % Triclosan, Sigma Aldrich (St. Louis, MO, USA; CAS #3380-34-5, 97.0-103.0% (active substance, GC)), 50 wt % DMSO, and 49.75 wt % H2O, with a final solution pH of 7.7. Normalized activity is reported following the equation 1 below. Normalized Activity=(αΔDT−βΔDT)/(γΔDT−βΔDT) equation 1. where, αΔDT is the average detection time of the antimicrobial compound, and γΔDT is the average detection time of the reference triclosan internal standard, and βΔDT is the average detection time of the background unperturbed bacteria. Modified amino acids of the present disclosure were tested as aqueous solutions in the Surface Antimicrobial Kill Testing Method above. To prepare test solutions modified amino acids were first dissolved in the appropriate solvent. Second the selected surfactant is added to the mixture. After vortex (1 min, Vortex-2 Genie, vortex speed 8) mixing, the samples were then diluted with ½ portion of reverse osmosis water (RO water, Millipore Direct-Q™, pH 6). The aqueous solution was then vortexed (1 min, Vortex-2 Genie, vortex speed 8), to which the second ½ portion of water is added. The pH of the solution was then adjusted to the target pH using either 1N HCl, Glacial Acetic Acid, or 1N NaOH. The final solution was then vortexed (1 min, Vortex-2 Genie, vortex speed 8). An example batch sheet is provided below in Table 1. In Performance Examples 1-5 below, formulations comprising solvent, surfactant, and antimicrobial agents according to the present disclosure (e.g., based on modified amino acid amides), are evaluated via microbial surface kill tests according to the Surface Antimicrobial Kill Testing Method provided above. After treatment, microbial growth is referenced and reported to a triclosan sample and unaltered microbes according to the Normalization of Antimicrobial Activity provided above.

Test [2] deals with Gram Negative bacteria. Put plainly: Surface Antimicrobial Kill Testing, normalized to triclosan internal standard, gram negative. In kind it is cell-based, K. pneumonia (Kp) / P. aeruginosa (Pa). As to conditions: for antimicrobial benefit in words, gram-negative: Table 2B formulas. As for the experimental part: as §1
The mark [3] stands for this setting: Table 2B, compound 0.5 wt %, DPGME 5 wt %, Surfonic L24-9 1 wt %, 0.1M Acetic acid buffer pH 4.5.
The mark [4] stands for this setting: Table 3B, compound 0.5 wt %, DPGME 5 wt %, Surfonic L24-9 1 wt %, 0.1M Acetic acid buffer pH 4.5.
Setting [5] is: 0.5 wt %, 5 wt % DPGME, water, pH 4.5, EH6 1 wt %.
The mark [6] stands for this setting: 0.5 wt %, 5 wt % DPGME, water, pH 4.5, Miranol Ultra 1 wt %.
Setting [7] is: 0.5 wt %, 5 wt % DPGME, water, pH 4.5, Plantaren 2000 1 wt %.
The mark [8] stands for this setting: 0.5 wt %, 5 wt % DPGME, water, pH 4.5, Surfonic L24-9 1 wt %.
Where [9] appears, read: 0.5 wt %, 5 wt % DPGME, water, pH 4.5, Tween 80 1 wt %.
Setting [10] is: 0.5 wt %, 5 wt % DPGME, water, pH 9, Miranol Ultra 1 wt %.
Setting [11] is: 0.5 wt %, 5 wt % DPGME, water, pH 9, SLS 1 wt %.
Setting [12] is: 0.5 wt %, 5 wt % DPGME, water, pH 9, Surfonic L24-9 1 wt %.
The mark [13] stands for this setting: Table 4, variety of surfactants.

Turning to `CN(C)C(=O)[C@H](N)Cc1ccccc1` [Comparative Example C1, reference compound], in test [1], the “antimicrobial benefit in words, gram-positive” value is “fail to show any meaningful benefit”. For the same compound, in test [1] (setting [3]), the “Gram Positive Referenced Microbial Activity” value stood at 0.1. Besides, the “antimicrobial benefit in words, gram-negative” value in test [2] was “fail to show any meaningful benefit”. Further, the “Gram Negative Referenced Microbial Activity” value in test [2] (setting [3]) stood at 0.2.
As to `CCCCCCNC(=O)[C@@H](N)Cc1c[nH]c2ccccc12` [Synthetic Example 1], in test [1] (setting [4]), the “Gram Positive Referenced Microbial Activity” value is given as 0.3. The “Gram Negative Referenced Microbial Activity” value in test [2] (setting [4]) was 2.2.
On to `CCCCCCCCNC(=O)[C@@H](N)Cc1c[nH]c2ccccc12` [Synthetic Example 2], for which the “Gram Positive Referenced Microbial Activity” value in test [1] (setting [5]) turned out to be 1.6; in test [1] (setting [6]), 0.7; in test [1] (setting [7]) it was 1.3; in test [1] (setting [8]) it was 1.0; in test [1] (setting [9]), 1.2; in test [1] (setting [10]), 0.2. For the same compound, the “Gram Positive Referenced Microbial Activity” value was 0.2 in test [1] (setting [11]); 0.2 in test [1] (setting [12]); 1.0 in test [1] (setting [4]); 1.1 in test [1] (compound 0.5 wt %, Surfonic L 24-9 1 wt %, 5 wt % DPGME, water, pH 4.5, aged 14 days); 1.0 in test [1] (compound 0.5 wt %, Surfonic L 24-9 1 wt %, 5 wt % DPGME, water, pH 4.5, not aged). Further, the “antimicrobial efficacy in words, gram-positive” value in test [1] (setting [13]) was “shows antimicrobial efficacy”. The “Gram Negative Referenced Microbial Activity” value is not below 4.9 in test [2] (setting [5]); not below 4.9 in test [2] (setting [6]); not below 4.9 in test [2] (setting [7]); 2.5 in test [2] (setting [8]); not below 4.9 in test [2] (setting [9]); 0.1 in test [2] (setting [10]). Further, the “Gram Negative Referenced Microbial Activity” value in test [2] (setting [11]) is 0.0; in test [2] (setting [12]) it was 0.7; in test [2] (setting [4]) it was 2.5. In addition, the “pH cutoff of antimicrobial efficacy” value in test [2] (Table 4, gram negative and gram positive) is reported as “cutoff at pH 9”. The “antimicrobial efficacy in words, gram-negative” value in test [2] (setting [13]) is on record as “shows antimicrobial efficacy”.
On to `CCCCCCCCCNC(=O)[C@@H](N)Cc1c[nH]c2ccccc12` [Synthetic Example 3], for which, in test [1] (setting [4]), the “Gram Positive Referenced Microbial Activity” value is recorded as 0.3. In test [2] (setting [4]), the “Gram Negative Referenced Microbial Activity” value came out at 2.2.
Regarding `CCCCCCCCNC(=O)[C@@H](N)Cc1ccccc1` [Synthetic Example 5], the “antimicrobial benefit in words, gram-positive” value in test [1] was “shows improvement against gram-negative and gram-positive bacteria”. Moreover, in test [1] (setting [3]), the “Gram Positive Referenced Microbial Activity” value worked out at 0.7. Further, the “antimicrobial benefit in words, gram-negative” value in test [2] is reported as “demonstrate meaningful gram-negative activity”. In test [2] (setting [3]), the “Gram Negative Referenced Microbial Activity” value is not below 3.9.
In the case of `CCN(C(=O)C(N)Cc1ccccc1)C1CCCCC1` (stereo not drawn) [Synthetic Example 6], the “Gram Positive Referenced Microbial Activity” value in test [1] (setting [3]) is on record as 0.2. Further, the “antimicrobial benefit in words, gram-negative” value in test [2] is recorded as “demonstrate meaningful gram-negative activity”. In addition, in test [2] (setting [3]), the “Gram Negative Referenced Microbial Activity” value is listed as 2.7.
Regarding `CCCCCCCCCCCCNC(=O)[C@@H](N)Cc1ccccc1` [Synthetic Example 7], the “antimicrobial benefit in words, gram-positive” value in test [1] was “fail to show any meaningful benefit”. For the same compound, the “Gram Positive Referenced Microbial Activity” value in test [1] (setting [3]) came to 0.1. The “antimicrobial benefit in words, gram-negative” value in test [2] was “fail to show any meaningful benefit”. Also, in test [2] (setting [3]), the “Gram Negative Referenced Microbial Activity” value came out at 0.1.
